According to a melting point compilation (Tetko et al.; mined from patent text by program, amines drawn as free bases though some values may be those of a salt):

Row | SMILES | melting point [°C]
1 | CC(CCCc1ccccc1)Oc1cc(O)c2c(c1)NCCC2=O (stereo not given) | 88 to 90
2 | COC(=O)c1cccc2c1Nc1ccc(I)cc1C2 | 122 to 124
3 | CSc1nn2c(N3CCN(C)CC3)cc(CN3CCOCC3)nc2c1S(=O)(=O)c1ccccc1 | 199 to 201
4 | CCn1c(=O)n(N(Cc2ccccc2)Cc2ccccc2)c(=O)c2cc(F)c(F)cc21 | 133 to 135
5 | CC(=O)SCCCC1(C)C(=O)N2CCCC(C(=O)O)N2C1=O (stereo not given) | 160 to 161
6 | CN(Cc1ccc(C2=NCCN2C(=O)OC(C)(C)C)cc1)C(=O)OCc1ccccc1 | 124
7 | CC(C)(C)[Si](C)(C)Oc1ccc2c(N3C(=O)c4ccccc4C3=O)n[nH]c2c1 | 207 to 209
8 | Cc1cccc2c(C(=O)O)cn(C)c12 | 243
9 | CC(=O)OC1CSC(Oc2ccc(-c3ccccn3)cc2)C(OC(C)=O)C1OC(C)=O (stereo not given) | 125 to 130
10 | C/C(=N\O)c1cccc(Nc2c3ccccc3nc3occc23)c1 | 248 to 249
11 | CC(C)OC(=O)Nc1c(C(O)(C(F)(F)F)C(F)(F)F)ccc2ccccc12 | 139 to 141
12 | CNC(=O)c1ccccc1Nc1nc(Nc2ccc3c(c2)CCOCC3)ncc1Cl | 185
13 | CCCCCCCCCCNC(=O)c1cc(N)cc(C(=O)NCCCCCCCCCC)c1 | 188 to 189
14 | COc1cc(N)c(Cl)cc1C(=O)NCC1CCN(CCCSc2ccccc2)CC1 | 146 to 148
15 | Clc1cccc(Cc2ccc(OCCCn3cccn3)c(Cl)c2)c1 | 52.5
16 | Cc1ccc(-c2ccc(OC3SCC(O)C(O)C3O)c(F)n2)cn1 (stereo not given) | 189 to 190
17 | Cc1cn(C2CC(N=[N+]=[N-])C(C(O)S(C)(=O)=O)O2)c(=O)n(C(=O)c2ccccc2)c1=O (stereo not given) | 86 to 88
18 | O=S(=O)(Nc1cccc(COc2cccc3cccnc23)c1)c1ccc(F)cc1 | 206 to 207
19 | O=C1O[C@H](Cc2ccon2)CN1c1ccc(N2CCC3(CC2)OCCO3)c(F)c1 | 120 to 122
20 | OCC1OC(n2c(Cl)nc3c(Br)c(Br)c(Br)cc32)C(O)C1O (stereo not given) | 168 to 170
21 | CC1=NN=C(C=Cc2cccc(F)c2)c2cc3c(cc2C1)OCO3 | 161 to 162
22 | CC1Nc2ccc(S(=O)(=O)N3CCCCC3)cc2S(=O)(=O)N1 (stereo not given) | 255 to 256
23 | CC(C)(C)C=C/C=C/C(C)(C)C | 78 to 79
24 | CCOC(Cn1nc(CC(=O)OC)c2ccccc2c1=O)OCC | 68

Row | SMILES | melting point [°C]
25 | Cc1ccc2ccc(C(=O)O)c(O)c2n1 | 217 to 219
26 | CCCCCCC(C)(C)c1ccc(C2=CCCNC2)c(O)c1 | 122 to 123
27 | N#CCCNC(=O)c1cccc(-c2ccc3c(c2)N(CCc2ccc(Cl)cc2Cl)CC3)c1 | 147 to 149
28 | Nc1cccc(F)c1C(=O)NCC(=O)O | 188 to 192
29 | CSC1CCC2C3CCC4=CC(=O)C=CC4(C)C3(F)C(OC(C)=O)CC12C (stereo not given) | 169 to 170
30 | NC(=O)N(O)Cc1sccc1Sc1ccc(F)cc1 | 101 to 103
31 | CC(C)CN1N=Cc2cc(S(N)(=O)=O)sc2S1(=O)=O | 130 to 132
32 | COc1cc(N)c(Cl)cc1C(=O)NC1CCN(CCNC(=O)C(O)c2ccccc2)CC1OC (stereo not given) | 228
33 | COc1ccc(O)c2c1C(C)(C)CCC2(C)C | 127
34 | CC(C)(C)c1cc(CCc2cc(C=O)cc(CCc3cc(C(C)(C)C)cc(C(C)(C)C)c3)c2)cc(C(C)(C)C)c1 | 74 to 75
35 | Cc1cccc(Cl)c1C(=O)N[C@@H](Cc1ccc(-c2c(C(F)(F)F)n(C)c(=O)n(C)c2=O)cc1)C(=O)O | 243 to 247
36 | O=C1c2ccccc2C(=O)N1CC(O)COc1cccc2ccccc12 (stereo not given) | 152 to 154
37 | Cn1ccc2cc(Nc3cnccc3N)ccc21 | 167 to 169
38 | CN(C)Nc1c([N+](=O)[O-])cc(C(F)(F)F)c(N)c1[N+](=O)[O-] | 150 to 154
39 | COc1cccc(Sc2ccnc(Nc3cc(OC)c(OC)c(OCCN4CCCC4)c3)n2)c1 | 120 to 121
40 | C=CCOc1ccccc1S(=O)(=O)NC(=O)Nc1nc(C)cc(C)n1 | 199 to 200
41 | CC(C)CCOc1ccc([N+](=O)[O-])cc1OCCC(C)C | 44 to 47
42 | O=C1c2ccccc2-c2cc(O)c(Cl)c(Cl)c21 | 276 to 284
43 | N#Cc1cc(NC(=O)c2cc3ccccc3s2)ccc1N(CCO)CCO | 163 to 168
44 | CC(=O)CC(=O)NC1CC1 | 65 to 66
45 | N#Cc1cnc2cc(/C=C/CCCCCCCCCN3CCOCC3)ccc2c1Nc1ccc(Cl)cc1Cl | 105 to 106
46 | O=C(NC(=S)NC1CCN(Cc2ccc3ccccc3c2)CC1)c1ccccc1 | 212 to 214
47 | O=[N+]([O-])c1ccc(N2CCN3CCC2CC3)nc1 | 143 to 146
48 | CCN(CC)CCNC(=O)c1ccc2cc(I)ccc2c1 | 105 to 107

Row | SMILES | melting point [°C]
49 | CS(=O)(=O)OCCNc1ccc(Cl)cc1[N+](=O)[O-] | 108 to 109
50 | c1ccc2c(c1)OCC(CN1CCC(CNc3nc4ccccc4s3)CC1)O2 (stereo not given) | 133
51 | COCCN(C)C1=N/C(=C\c2c[nH]c3ncc(Cl)cc23)C(=O)N1 | 281
52 | CCNC(=O)c1ccc(N2CCN(Cc3cc(Cc4ccccc4)c4c(c3)NC(=O)C(C)O4)CC2)cc1 (stereo not given) | 198 to 206
53 | Fc1ccc(-c2cc(-c3ccccc3)c3cc(Cl)ccc3n2)cc1 | 141 to 142
54 | Oc1ccc(O)c(-c2ccc(Cl)cc2Cl)c1 | 82 to 86
55 | CN(C)CCOc1ccc(C=NO)cc1 | 95 to 96
56 | CCCCCCCN(C(=O)Nc1ccccc1CCc1cc(C(C)(C)C)c(O)c(C(C)(C)C)c1)C1CCCCCC1 | 70 to 72
57 | CCCCCCCCCCCCCCCCCCOc1cccc(N(CC(=O)OCc2ccccc2)CC(=O)OCc2ccccc2)c1 | 55 to 57
58 | CC(C)(C)OC(=O)[C@H]1CC[C@@H](c2ccccc2)N1C(=O)CNC(=O)Nc1cccc(C(=O)OCc2ccccc2)c1 (racemic) | 75
59 | COc1ccc(C(=O)Nc2ccccc2)cc1NS(=O)(=O)c1cccc(C#N)c1 | 195 to 197
60 | N#Cc1cccc(C[C@H](N)C(=O)O)c1 | 248 to 250
61 | CC(C)OC(=O)c1cn(Cc2c(F)cccc2F)c2nc(-c3ccc(N)cc3)c(CN(C)Cc3ccccc3)n2c1=O | 168 to 170
62 | N#CC(Oc1nsnc(Cl)c1=O)c1cccc(Oc2ccccc2)c1 (stereo not given) | 146 to 148
63 | COc1ccc2c(c1)C=Cn1c(nnc1OC)C2 | 185 to 186
64 | CCCCCCCCCCNC(=O)c1cc(C(=O)NCCCCCCCCCC)cc(N(CCCC(=O)O)CCCC(=O)O)c1 | 154 to 156
65 | COc1cccc2c1CC(C(=O)NCCOc1ccc(C(=O)O)cc1)N2S(=O)(=O)c1ccc(-c2ccc(F)cc2)cc1 (stereo not given) | 113
66 | CN(C)CCOc1ccc(N(CCN(C)C)c2nccc(-c3ccncc3)n2)cc1 | 87 to 91
67 | Cc1ccnc(C(=O)c2[nH]c3ccc(Cl)cc3c2CC(=O)NCCO)c1 | 196
68 | COC(=O)[C@@](C)(CCC1=C(C)C(=O)C(C)=C(C)C1=O)OS(C)(=O)=O | 112 to 114
69 | CCCCOc1cc(/C=C(\OCC)C(=O)O)ccc1OCCc1ccc(OS(=O)(=O)CCCC)cc1 | 96
70 | N=C(NS(=O)(=O)c1ccc(F)cc1)N1CC(c2ccccc2)C(c2ccc(Cl)cc2)=N1 (stereo not given) | 214 to 215
